Measurements published in patent publication US20230372364A1, “METHOD OF TREATING GABA MEDIATED DISORDERS” (Eliem Therapeutics (UK) Ltd, priority 2020, published 2023).

Experiments:
[1] = system: rodent models of seizure, anxiety, depression and EEG biomarker; assay: Preclinical models of depression, anxiety, seizure and EEG (overall effective dose); type: in vivo
[2] = Single ascending oral dose pharmacokinetics in humans; type: in vivo; settings: human
Experimental: The pharmacokinetic properties of CV-10155 in humans were analyzed. Subjects were given a single oral dose of CV-10155, and plasma concentrations were measured at various time points. Various dosages were given to fasting subjects, and 30 mg dose was given to a subjects in a fed state.
FIG. 15 is a graph of the average plasma concentration of CV-10155 following oral administration to humans. Purple circles represent 5 mg, fasted; green diamonds represent 15 mg, fasted; red squares represent 30 mg fasted; blue triangles represent 30 mg, fed; purple crosses represent 60 mg, fasted; teal 5-pointed stars represent 90 mg, fasted; olive 6-pointed stars represent 135 mg, fasted; and brown 10-pointed stars represent 200 mg fasted.
FIG. 16 is a graph of the average plasma concentration of CV-10155 following oral administration of a 30 mg dose to humans. Blue triangles represent fasted; and red circles represent fed.
The pharmacokinetic properties of CV-10155 and Sage-217 in humans were compared. The day 7 from subjects given either 60 mg CV-10155 in the morning in a fasted state or 30 mg Sage-217 were analyzed. Results from multiple ascending dose studies are shown in Table 10, and results from single ascending dose studies are shown in Table 11.

CYP2C8 = target: T1, CYP2C8 (Homo sapiens, UniProt P10632); assay: Repaglinide drug-drug interaction in humans; type: in vivo; settings: repaglinide exposure after 14 day repeat doses
T1 construct: from tissue; host or cells: human volunteers in vivo (endogenous, mainly hepatic, enzyme: own knowledge)
T1 sequence (P10632 1-490): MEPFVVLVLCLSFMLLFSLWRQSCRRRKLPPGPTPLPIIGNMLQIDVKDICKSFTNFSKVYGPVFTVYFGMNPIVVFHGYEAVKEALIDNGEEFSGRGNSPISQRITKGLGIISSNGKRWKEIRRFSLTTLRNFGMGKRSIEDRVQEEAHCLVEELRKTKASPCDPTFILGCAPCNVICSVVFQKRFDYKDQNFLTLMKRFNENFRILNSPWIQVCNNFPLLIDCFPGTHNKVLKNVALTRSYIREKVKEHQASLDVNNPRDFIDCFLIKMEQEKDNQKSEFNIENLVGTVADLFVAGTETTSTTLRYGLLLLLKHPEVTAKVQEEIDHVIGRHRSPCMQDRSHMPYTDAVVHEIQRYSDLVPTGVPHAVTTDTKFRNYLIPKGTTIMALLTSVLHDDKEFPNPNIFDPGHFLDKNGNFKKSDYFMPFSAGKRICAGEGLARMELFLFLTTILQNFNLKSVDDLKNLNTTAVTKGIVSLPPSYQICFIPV

rats = assay: Repeat-dose toxicity up to four weeks, rats; type: in vivo, rat
Experimental: (§1) The no-observed-adverse-effect-level doses were 7.5/mg/kg/day and 6 mg/kg/day in rats and dogs, respectively.
(§2) Justification for Dose—Based on the nonclinical toxicology data, there is not an unreasonable risk of adverse effects. Using the FDA guidance “Estimating the Maximum Safe Starting Dose in Initial Clinical Trials for Therapeutics in Adult Healthy Volunteers” (July, 2005), the calculated human equivalent dose would be 1/2 mg/kg/day or 3/24 mg/kg/day, respectively, based on the 28-day rat no-observed-adverse-effect-level dose of 7.5 mg/kg/day or the 28-day dog no-observed-adverse-effect-level dose of 6 mg/kg/day, respectively. For both species the no-observed-adverse-effect-level dose was the highest dose tested. For a 60 kg participant, this would result in a maximum safe starting dose of (human equivalent dose/10) of 7.2 mg/day or 19/6 mg/day. The starting doses in this Phase 1 study are 5 mg, equivalent to […] for a 60 kg participant. […] These anticipated Cmax and AUC values are ˜80- and 50-fold lower, respectively, than that observed at the no-observed-adverse-effect-level dose in dogs.

dogs = assay: Repeat-dose toxicity up to four weeks, dogs; type: in vivo, dog; settings: 28-day repeat dose
Experimental: as §1, §2

[3] = system: cardiovascular or respiratory function; assay: In vivo safety pharmacology studies
Experimental: as §1

[4] = Human equivalent dose and allometric scaling of anticipated human exposure; settings: 60 kg participant
Experimental: as §2

5-HT2A receptor = 5-HT2A receptor (Homo sapiens, UniProt P28223); assay: Activity at the 5-HT2A receptor; settings: previously shown
Chain of 5-HT2A receptor (P28223 whole entry, looked up): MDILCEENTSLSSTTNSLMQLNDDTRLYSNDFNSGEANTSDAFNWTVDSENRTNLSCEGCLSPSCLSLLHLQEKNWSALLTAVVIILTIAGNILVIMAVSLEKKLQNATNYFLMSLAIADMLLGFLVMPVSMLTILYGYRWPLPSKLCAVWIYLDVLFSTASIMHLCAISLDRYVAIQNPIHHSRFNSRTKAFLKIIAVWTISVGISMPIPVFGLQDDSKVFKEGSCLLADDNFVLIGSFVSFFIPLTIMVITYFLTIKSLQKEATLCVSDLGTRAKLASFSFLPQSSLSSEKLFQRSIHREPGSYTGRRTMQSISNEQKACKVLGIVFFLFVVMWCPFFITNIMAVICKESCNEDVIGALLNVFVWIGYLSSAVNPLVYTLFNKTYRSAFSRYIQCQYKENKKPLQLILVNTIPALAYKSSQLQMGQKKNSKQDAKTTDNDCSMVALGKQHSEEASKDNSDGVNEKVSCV
Excerpt: The compound of Formula (I) is believed to have binding affinity at the GABA-gated Cl-channel, the kappa opioid receptor, the 5-HT2A receptor, and the androgen receptor. The compound of Formula (I) has previously shown activity at all 18 GABAA receptor channels and the kappa opioid receptor. The compound of Formula (I) had previously shown no activity at the 5-HT2A receptor. Activity at the androgen receptor is has not yet been well studied.

In the case of `C[C@@]1(O)CC[C@@]2(C)[C@@H](CC[C@@H]3[C@@H]2CC[C@]2(C)[C@@H](C(=O)Cn4cc(C#N)cn4)CC[C@@H]32)C1` [CV-10155, 1-[2-[(3R,5S,8R,9S,10S,13S,14S,17S)-3-hydroxy-3,10,13-trimethyl-1,2,4,5,6,7,8,9,11,12,14,15,16,17-tetradecahydrocyclopenta[a]phenanthren-17-yl]-2-oxoethyl]pyrazole-4-carbonitrile], the “dose from which robust efficacy was observed” value ([1]; in most models) is reported as no less than 3 mg/kg, the “minimal effective dose (MED)” value ([1]; preclinical models of depression, anxiety, seizure) is reported as 1 mg/kg and the “effect of food consumption on absorption” value ([2]; 30 mg oral, fed vs fasted) is reported as “no clinically meaningful effect”. It also gave a Tmax ([2]; 135 mg SAD MTD) of 2.83 h, a Tmax ([2]; single oral dose, 5-200 mg) of 2 to 4 h and a half-life ([2]; single oral dose, 5-200 mg) of 24 to 26 h. For the same compound, the “inter-subject variability (CV) of AUC and Cmax” value ([2]; single oral dose, 5-200 mg) was no more than 30%, the “dose proportionality of AUC and Cmax” value ([2]; single oral dose, 5-200 mg dose range) was “dose-proportional increase” and the “DDI inhibitory effect at CYP2C8 level” value (CYP2C8) was “no or minimal DDI inhibitory effect”. The “primary effects observed in repeat-dose toxicity” value (rats; mid and high dose levels, species not specified (rats and dogs program)) was “ataxia and prostration”, the no-observed-adverse-effect-level dose (rats; rats, 28-day repeat dose) was 7.5 mg/kg/day and the no-observed-adverse-effect-level dose (dogs) was 6 mg/kg/day. The “effect on cardiovascular or respiratory function” value [3] was “does not affect”, the “maximum safe starting dose (human equivalent dose/10)” value ([4]; from dog NOAEL) was 19/6 and the “maximum safe starting dose (human equivalent dose/10)” value ([4]; from rat NOAEL) was 7.2 mg/day. The “activity at the 5-HT2A receptor” value (5-HT2A receptor) was “no activity”.
